Results: patent publication US20130190251A1, “METHOD FOR PREDICTING THE RESPONSIVENESS TO CHEMOTHERAPY” (priority 2010, published 2013)
Entries after “also recorded” stand apart in the source; their conditions may differ.

What was measured:
Format in all cases: cell-based
[1] = test system: HL-60 cells resistant to daunorubicin (HL60R); assay: Apoptosis by mitochondrial depolarization after DiOC6 labeling, HL60R; details: 15-hour incubation, gliotoxin 1 mg/ml or p21 peptide 50 mM
Description: (§1) FIG. 7. The p21 peptide restores apoptosis in daunorubicin-resistant HL60 cells. HL60S and HL60R were incubated overnight with the p21 peptide (50 mM) or with gliotoxin (1 mg/ml). After a 15-hour incubation, the effect of the p21 peptide on the percentage of apoptotic HL60 cells was measured by mitochondrial depolarization after DiOC6 labeling and by DNA fragmentation after propidium iodide labeling. Data are means±SEM of 5 independent experiments.
(§2) Apoptosis in HL-60 cells sensitive to daunorubicin (HL60S) was compared to apoptosis in HL-60 cells resistant to daunorubicin (HL60R). Apoptosis was induced either by gliotoxin that triggers apoptosis by targeting the mitochondria or the p21 peptide. The p21 peptide corresponds to residues 141 to 160 of p21 fused to the cell penetrating peptide RYIRS. HL60S and HL60R were incubated overnight with the p21 peptide (50 mM) or with gliotoxin (1 mg/ml). After a 15-hour incubation, the effect of the p21 peptide on the percentage of apoptotic HL60 cells was measured by mitochondrial depolarization after DiOC6 labeling and by DNA fragmentation after propidium iodide labeling (FIG. 7).

[2] = test system: HL-60 cells sensitive to daunorubicin (HL60S); assay: Apoptosis by DNA fragmentation after propidium iodide labeling, HL60S; details: 15-hour incubation, gliotoxin 1 mg/ml or p21 peptide 50 mM
Description: as §1, §2

[3] = test system: HL-60 cells resistant to daunorubicin (HL60R); assay: Apoptosis by DNA fragmentation after propidium iodide labeling, HL60R; details: 15-hour incubation, gliotoxin 1 mg/ml or p21 peptide 50 mM
Description: as §1, §2

[4] = test system: K562-doxorubicin sensitive cells; assay: Analysis of drug resistance by DIOC2 efflux, K562 sensitive; details: cisplatin 2.5 μg/ml, DIOC2 50 ng/ml, 30 min at 37° C., FACS
Description: (§3) FIG. 6. Acquisition of drug resistance of myelocytic leukemia cell line K562 by doxorubicin. Analysis of inhibition by cisplatin of DIOC2 incorporation in myelocytic leukemia K562 cell line. Drug resistance is mediated by ABC transporters such as P-glycoprotein (P-gp) K562 cells were incubated with DIOC2 with or without cisplatin, and the fluorescence of DIOC2 incorporated in cells was assessed by FACS. In K562-doxorubicin sensitive cells, high fluorescence of DIOC2 is observed because of the lack of efflux. No effect of cisplatin is observed consistent with an absence of ABC transporter-mediated drug resistance.
(§4) The assay is based on the efflux of fluorescent P-gp substrate DiOC2 (3-ethyl-2-[3-(3-ethyl-2(3H)-benzoxazolylidene)-1-propenyl]benzoxazolium iodide) in doxorubicin-resistant cells, which can be inhibited by cisplatin. This efflux is absent in doxorubicin-sensitive cells resulting in an accumulation of DIOC2. DIOC2 fluorescence is measured by flow cytometry. Briefly, K562 at 1×10^6 cellules/ml were treated by cisplatin (2.5 μg/ml) in the presence of DIOC2 (50 ng/ml) for 30 min at 37° C. The cells are analyzed by flow cytometry.

[5] = test system: K562-doxorubicin resistant cells; assay: Analysis of drug resistance by DIOC2 efflux, K562 resistant; details: cisplatin 2.5 μg/ml, DIOC2 50 ng/ml, 30 min at 37° C., FACS
Description: as §3, §4

[6] = test system: HL-60 cells sensitive to daunorubicin (HL60S); assay: Apoptosis by mitochondrial depolarization after DiOC6 labeling, HL60S; details: 15-hour incubation, gliotoxin 1 mg/ml or p21 peptide 50 mM
Description: as §1, §2

Compound	mitochondria depolarization in HL60R (percentage of apoptotic HL60 cells) [1]	DNA fragmentation in HL60S (percentage of apoptotic HL60 cells) [2]	DNA fragmentation in HL60S (percentage of apoptotic HL60 cells) ([2]; listed as gliotoxin)	DNA fragmentation in HL60R (percentage of apoptotic HL60 cells) [3]	effect on fluorescence of DIOC2 incorporated in cells [4]	effect on DIOC2 efflux (fluorescence of DIOC2 incorporated in cells) [5]	mitochondria depolarization in HL60S (percentage of apoptotic HL60 cells) [6]
CN1C(=O)[C@]23CC4=CC=C[C@H](O)[C@H]4N2C(=O)[C@@]1(CO)SS3 [Gliotoxin, gliotoxin]	no effect on HL60R	triggers mitochondria depolarization and DNA fragmentation in HL60S	induces apoptosis in HL60S	no effect on HL60R			
N.N.[Cl][Pt][Cl] [cisplatin]					No effect	efflux which was reversed	
p21 peptide: residues 141 to 160 of p21 fused to the cell penetrating peptide RYIRS (KRRQTSMTDFYHSKRRLIFSRYIRS; Synthetic peptide based on residues 141 to 160 of p21 fused to the RYIRS tag)	low but significant mitochondria depolarization			induces DNA fragmentation in HL60R more potently than in HL60S; also recorded: inducing DNA fragmentation in HL60R more potently than in HL60S			more modest effect
